Test results taken from patent US6949533B2, “6,7-Oxygenated steroids and uses related thereto” (Inflazyme Pharmaceuticals Ltd., priority 1996, dated 2005).

Assays:
guinea pig ileum = assay: antigen-induced contraction of ileum from sensitized guinea pigs; settings: Cavia porcellus, read-out: Percentage Inhibition, 30 μM compound, n = 3-4
Method: The ability of compounds to inhibit allergen-induced contraction of ileum from sensitized animals is indicative of antiallergic activity. Sensitized guinea pig ileum is particularly useful in measuring the immediate allergic response.
The guinea pig ileum has been used to evaluate the ability of compounds to inhibit allergan-induced histamine and mediator release causing smooth muscle contraction. Guinea pigs were sensitized by an intraperitoneal injection of 100 mg ovalbumin and an intramuscular injection of 50 mg ovalbumin on day 0, followed by a second intramuscular injection of 50 mg ovalbumin on day 1. […] Segments of ileum were prepared and suspended, with muscle contractions being measured in the longitudinal plane, in Tyrode's buffer at 37° C. and aerated with 5% CO2 in O2. Tissues were suspended under a resting tension of 2 grams and isometric contractions were measured using force-displacement transducers coupled to a polygraph. Tissues were stimulated with 3 μM histamine 3 times to ensure reproducible contractions were obtained. Tissues were then incubated with each compound (30 μM) or 0.15% dimethylsulphoxide (DMSO) as a control, for 20 min, after which time the tissues were challenged with 100 μg/ml ovalbumin. The magnitude of the contraction induced by OA in the presence of each compound was expressed as a percentage of the contraction obtained to 3 μM histamine. The protective effects of the various compounds on OA-induced contraction of guinea pig ileum from sensitized animals are summarized in Table 4.

mouse mast cells (MC/9) = assay: antigen-induced release of hexosaminidase from MC/9 cells; assay type: cell-based; settings: Mus musculus, MC9, 25 μM compound, read-out: Percentage Inhibition (mean) MC/9 cells
Method: (§1) The anti-allergic effects of various polyhydroxylated steroids of the present invention were evaluated by measuring their effect on antigen-induced secretion of hexosaminidase from a passively sensitized rat mast cell line (RBL-2H3) and a murine mast cell line (MC/9). The ability of agents to inhibit the release of mast cell granule contents, e.g., histamine and hexosaminidase, is indicative of anti-allergy and/or anti-asthma activity.
(§2) Hexosaminidase is released from the mast cell granule along with histamine and other mediators during antigen challenge. RBL-2H3 and MC/9 cells were grown in culture and passively sensitized to dinitrophenol (DNP) using anti-human-DNP (IgE). Cells were incubated with each compound (25 μM) for 1 hour at 37° C. and then stimulated with 0.1 mg/ml DNP-HSA (antigen) for 15 min. Aliquots of the supernatant were removed and used to measure the amount of hexosaminidase released during challenge with the antigen. The amount of hexosaminidase present in the supernatant was determined calorimetrically by monitoring the enzymatic metabolism of p-nitrophenyl-N-acetyl-β-D-glucosaminide (p-NAG) over a period of 1 hour at 410 nm. The effect of each compound was determined as a percentage of the antigen-induced response (minus background release) obtained in the presence of DMSO alone, as set forth in Tables 2 and 3. These values were used to determine the degrees of inhibition of antigen-induced hexosaminidase release from the cells.

[1] = tested on: passively sensitized rat mast cells (RBL-2H3); assay: antigen-induced release of hexosaminidase from RBL-2H3 cells; assay type: cell-based; settings: Rattus norvegicus, RBL-2H3, 25 μM compound; antigen-induced hexosaminidase release; read-out: Percentage Inhibition (mean) RBL-2H3 Cells
Method: as §1, §2

rabbit platelets = assay: PAF-induced aggregation of rabbit platelets; assay type: cell-based; settings: Oryctolagus cuniculus, Platelet; 80 μM compound, 5 min preincubation; PAF-stimulated rabbit platelets (title: 0.1 nM PAF); read-out: % Inhibition at 80 μM
Excerpt: Within the present invention, it was discovered that the polyhydroxylated steroids as well as intermediates described in previous sections inhibited the aggregation of platelets caused by platelet activating factor (PAF). PAF is a local mediator of thrombosis and prevention of the formation of blood clots has direct implication in the treatment of thrombosis and associated cardiovascular diseases. The assay system used to evaluate the ability of compounds to inhibit the aggregation of platelets in response to exogenous stimuli is indicative of anti-thrombotic or thrombolytic activity.
Platelets were isolated from rabbit blood and prepared at a density of 2.4×10^8 cells/ml in Tyrodes buffer (pH 7.2) containing Ca^2+. Platelets were incubated with each compound for 5 min at 37° C. prior to stimulation. Platelets were stimulated with 1 nM platelet activating factor (PAF; EC75) in the presence of each of the compounds and aggregation was monitored for 5 min. Compounds were solubilized in dimethylsulfoxide (DMSO) and aggregation was measured as a percentage of the response to 1 nM PAF obtained in the presence of the appropriate concentration of DMSO. The degree of inhibition caused by each sample was calculated using the control response in the presence of DMSO equal to 100%.

C/C=C1/CCC2C3C(CC[C@]12C)[C@@]1(C)CC[C@@H](O)CC1[C@@H](O)[C@@H]3O (stereo partly drawn) [Compound 330, 3α,6α,7β-trihydroxy-17(20)-pregnene]
inhibition at 30 µM (guinea pig ileum): 70%
inhibition at 25 µM (mouse mast cells (MC/9)): 49%
inhibition at 25 µM [1]: 59%
inhibition at 80 µM (rabbit platelets): 20.9%
